Laboratory results published in patent publication US7713994B2 (Wyeth LLC, priority 2005, dated 2010).
Like-named read-outs stand apart in the source and are kept apart here.

What was measured:
[1] = system: BT474; test: Cytotoxicity assay (SRB), BT474; type: cell-based
Summary of the method: (§1)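 Overnight-seeded monolayers (4000–12000 cells/well by line) receive compound in 5% FBS medium at 37 °C, 7% CO2. After 3 d, or 6 d for BT474, cellular protein is fixed with cold TCA, stained with SRB and read at 540 nm against untreated wells.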

[2] = target: T1, cyclin E/CDK2 enzyme (Homo sapiens, UniProt P24941); test: CDK2 ELISA kinase assay (phospho-Rb ser 795 detection); type: biochemical
T1 construct: made in house; host or cells: Sf9 insect cells, recombinant baculovirus
Summary of the method: (§2)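 Partially purified Sf9-expressed cyclin D1/CDK4, cyclin E/CDK2 or cyclin B/CDK1 phosphorylated plate-bound GST-Rb C-terminal fragment with 200 μM ATP at 30° C for 1 h.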

[3] = system: LoVo; test: Cytotoxicity assay (SRB), LoVo; type: cell-based; settings: LoVo cells, SRB, read-out: In Vitro Cellular Activity IC50 LOVO
Summary of the method: as §1

[4] = target: T2, cyclin D1/cdk 4 enzyme (Homo sapiens, UniProt P11802); test: CDK4 ELISA kinase assay (phospho-Rb ser 795 detection); type: biochemical
T2 construct: made in house; host or cells: Sf9 insect cells, recombinant baculovirus
T2 sequence (P11802 whole entry, species assumed): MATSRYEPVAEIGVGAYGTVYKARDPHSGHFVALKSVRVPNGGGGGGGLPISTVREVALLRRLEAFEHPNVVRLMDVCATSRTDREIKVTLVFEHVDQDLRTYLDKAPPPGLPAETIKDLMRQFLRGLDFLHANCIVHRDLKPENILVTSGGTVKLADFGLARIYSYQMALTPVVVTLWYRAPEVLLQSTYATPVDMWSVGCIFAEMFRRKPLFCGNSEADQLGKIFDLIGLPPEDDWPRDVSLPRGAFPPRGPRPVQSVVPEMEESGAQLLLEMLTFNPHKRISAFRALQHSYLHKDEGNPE
T2 sequence (P24385 whole entry partner, species assumed): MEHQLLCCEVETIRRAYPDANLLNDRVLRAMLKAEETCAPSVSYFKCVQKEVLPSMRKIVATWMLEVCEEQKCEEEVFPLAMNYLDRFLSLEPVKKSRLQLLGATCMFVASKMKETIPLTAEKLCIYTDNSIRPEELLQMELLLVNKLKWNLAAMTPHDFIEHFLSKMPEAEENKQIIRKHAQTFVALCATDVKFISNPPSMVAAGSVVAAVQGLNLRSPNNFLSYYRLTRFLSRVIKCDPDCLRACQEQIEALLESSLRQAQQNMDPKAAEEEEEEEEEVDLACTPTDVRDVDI
Summary of the method: as §2

[5] = target: T3, cyclin B/CDK1 enzyme (Homo sapiens, UniProt P06493); test: CDK1 ELISA kinase assay (phospho-Rb ser 795 detection); type: biochemical
T3 construct: purchased New England BioLabs; host or cells: Sf9 insect cells, recombinant baculovirus
T3 sequence (P06493 whole entry): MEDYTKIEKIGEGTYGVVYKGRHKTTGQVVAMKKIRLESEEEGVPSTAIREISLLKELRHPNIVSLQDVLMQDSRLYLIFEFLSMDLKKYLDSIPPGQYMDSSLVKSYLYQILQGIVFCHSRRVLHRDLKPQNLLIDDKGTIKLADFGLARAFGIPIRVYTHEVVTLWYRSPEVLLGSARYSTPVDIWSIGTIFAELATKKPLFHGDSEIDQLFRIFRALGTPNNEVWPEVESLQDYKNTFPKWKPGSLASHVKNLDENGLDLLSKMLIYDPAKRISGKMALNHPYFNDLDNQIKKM
T3 sequence (P14635 whole entry partner): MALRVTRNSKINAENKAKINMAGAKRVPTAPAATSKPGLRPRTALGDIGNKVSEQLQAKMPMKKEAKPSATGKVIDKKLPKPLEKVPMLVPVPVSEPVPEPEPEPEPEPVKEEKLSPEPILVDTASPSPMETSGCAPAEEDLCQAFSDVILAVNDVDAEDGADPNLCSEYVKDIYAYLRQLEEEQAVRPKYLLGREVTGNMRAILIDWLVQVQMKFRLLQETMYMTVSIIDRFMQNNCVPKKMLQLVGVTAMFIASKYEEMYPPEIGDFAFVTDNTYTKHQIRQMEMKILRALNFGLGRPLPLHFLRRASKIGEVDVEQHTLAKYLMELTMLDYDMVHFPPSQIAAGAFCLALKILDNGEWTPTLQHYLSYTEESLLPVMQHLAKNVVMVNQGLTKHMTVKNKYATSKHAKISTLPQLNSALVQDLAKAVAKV
Summary of the method: as §2

[6] = system: HCT-116; test: Cytotoxicity assay (SRB), HCT-116; type: cell-based; settings: HCT116 cells, SRB, read-out: In Vitro Cellular Activity IC50 HCT116
Summary of the method: as §1

[7] = system: MCF-7; test: Cytotoxicity assay (SRB), MCF-7; type: cell-based; settings: MCF-7 cells, SRB, read-out: In Vitro Cellular Activity IC50 MCF-7
Summary of the method: as §1

[8] = Homo sapiens, BT-474, 144 h, BT474 cells, 6 days, SRB; read-out: In Vitro Cellular Activity IC50 BT474
[9] = In Vitro Enzyme Assay, cyclin E/CDK2, read-out: CDK2 IC50
[10] = Homo sapiens, LoVo, 72 h, 3 days
[11] = In Vitro Enzyme Assay, cyclin D1/cdk 4, read-out: CDK4 IC50
[12] = In Vitro Enzyme Assay, cyclin B/CDK1, read-out: CDK1 IC50
[13] = Homo sapiens, HCT-116, 72 h, 3 days
[14] = Homo sapiens, MCF7, 72 h, 3 days
[15] = In Vitro Enzyme Assay, read-out: CDK2 IC50
[16] = In Vitro Enzyme Assay, read-out: CDK4 IC50
[17] = In Vitro Enzyme Assay, read-out: CDK1 IC50
[18] = In Vitro Enzyme Assays, read-out: CDK2 IC50
[19] = In Vitro Enzyme Assays, 200 μM ATP, read-out: CDK4 IC50
[20] = In Vitro Enzyme Assays, read-out: CDK1 IC50

| Compound | IC50 [2, 9] [µM] | IC50 [4, 11] [µM] | IC50 [5, 12] [µM] | IC50 [2, 15] [µM] | IC50 [4, 16] [µM] | IC50 [5, 17] [µM] | IC50 [1, 8] [µM] | IC50 [3, 10] [µM] | IC50 [6, 13] [µM] | IC50 [7, 14] [µM] | also measured |
| --- | --- | --- | --- | --- | --- | --- | --- | --- | --- | --- | --- |
| COc1ccc(NC=C2C(=O)NCc3cc(-c4cc[nH]c4)ccc32)cc1 [Example 850, 4-[(4-Methoxy-phenylamino)-methylene]-7-(1H-pyrrol-3-yl)-1,4-dihydro-2H-isoquinolin-3-one] | 19.7 | > 50 | > 50 | – | – | – | 46.5 | 24.2 | 16 | > 50 | – |
| CN1CCN(c2ccc(NC=C3C(=O)NC(=O)c4ccc(-c5ccn(CCCC#N)c5)cc43)cc2)CC1 [Example 855, 4-[3-(4-{[4-(4-Methyl-piperazin-1-yl)-phenylamino]-methylene}-1,3-dioxo-1,2,3,4-tetrahydro-isoquinolin-6-yl)-pyrrol-1-yl]-butyronitrile] | > 50 | 0.31 | > 50 | – | – | – | 43.3 | > 50 | > 50 | 42.6 | – |
| N=C(N)c1ccc(NC=C2C(=O)NCc3cc(Br)ccc32)cc1 [Example 861, 4-[(7-Bromo-3-oxo-2,3-dihydro-1H-isoquinolin-4-ylidenemethyl)-amino]-benzamidine] | 3.6 | 14.3 | > 50 | – | – | – | 45.4 | > 50 | > 50 | > 50 | – |
| O=C1NCc2cc(Br)ccc2C1=CNc1ccc(CCO)cc1 [Example 863, 7-Bromo-4-{[4-(2-hydroxy-ethyl)-phenylamino]-methylene}-1,4-dihydro-2H-isoquinolin-3-one] | 18 | 20.1 | 37.1 | – | – | – | 31.1 | 10.2 | 11.2 | 16.3 | – |
| CN(CCN1CCCC1)c1ccc(N/C=C2\C(=O)NC(=O)c3ccc(Br)cc32)cc1 [Example 864, (4Z)-6-Bromo-4-[({4-[methyl(2-pyrrolidin-1-ylethyl)amino]phenyl}amino)methylene]isoquinoline-1,3(2H,4H)-dione] | > 50 | 2.5 | > 50 | – | – | – | 7.9 | 3.8 | 3.1 | 3.6 | – |
| CN(CCN1CCCCC1)c1ccc(N/C=C2\C(=O)NC(=O)c3ccc(Br)cc32)cc1 [Example 865, (4Z)-6-bromo-4-[({4-[methyl(2-piperidin-1-ylethyl)amino]phenyl}amino)methylene]isoquinoline-1,3(2H,4H)-dione] | – | – | – | > 50 | 4.3 | > 50 | 7.5 | 3.6 | 3.1 | 5.3 | – |
| CN1Cc2ccc(N/C=C3\C(=O)NC(=O)c4ccc(Br)cc43)cc2C1 [Example 868, (4Z)-6-Bromo-4-{[(2-methyl-2,3-dihydro-1H-isoindol-5-yl)amino]methylene}isoquinoline-1,3(2H,4H)-dione] | – | – | – | 2.5 | 1.2 | 20.7 | 6.8 | 3.9 | 2.5 | 5.5 | – |
| CC1(C)Oc2cc(CN/C=C3\C(=O)NC(=O)c4ccc(Br)cc43)cc(OC(=O)C3CC3)c2O1 [Example 873, 6-({[(Z)-(6-Bromo-1,3-dioxo-2,3-dihydroisoquinolin-4(1H)-ylidene)methyl]amino}methyl)-2,2-dimethyl-1,3-benzodioxol-4-yl cyclopropanecarboxylate] | – | – | – | 24.7 | > 50 | 1.9 | 42.7 | 41.1 | 24.5 | 29.2 | – |
| CN(C)CCCc1ccc(N/C=C2\C(=O)NC(=O)c3ccc(Br)cc32)cc1 [Example 874, (4Z)-6-Bromo-4-[({4-[3-(dimethylamino)propyl]phenyl}amino)methylene]isoquinoline-1,3(2H,4H)-dione] | – | – | – | 38.8 | 3 | > 50 | 27.4 | 23.7 | 12.6 | 7.2 | – |
| O=C1NC(=O)c2ccc(Br)cc2/C1=C/Nc1ccc(CN2CCC(O)CC2)cc1 [compound 75] | – | – | – | – | – | – | – | – | – | – | IC50 ([1]; Homo sapiens, BT-474, 144 h, BT474 cells, SRB, 6 days; read-out: In Vitro Cellular Activity IC50 BT474): 9.7 µM; IC50 [2, 18]: 7.2 µM; IC50 ([3]; Homo sapiens, LoVo, 72 h, three days): 6 µM; IC50 [4, 19]: 0.29 µM; IC50 [5, 20]: > 50 µM; IC50 ([6]; Homo sapiens, HCT-116, 72 h, three days): 5.8 µM; IC50 ([7]; Homo sapiens, MCF7, 72 h, three days): 4.3 µM |
| (4Z)-4-{[(3-Hydroxy-4-propoxybenzyl)amino]methylene}-6-thiene-3-ylisoquinoline-,3(2H,4H)-dione [Example 183] | – | – | – | – | – | – | – | – | – | – | IC50 ([1]; BT474 cells, SRB, 6 days; read-out: In Vitro Cellular Activity IC50 BT474): 13 µM; IC50 [2, 18]: > 50 µM; IC50 ([3]; three days): 12 µM; IC50 [4, 19]: 0.11 µM; IC50 [5, 20]: > 50 µM; IC50 ([6]; three days): 8.4 µM; IC50 ([7]; three days): 8.8 µM |

More lines, main results first:

| IC50 [2, 9] [µM] | IC50 [4, 11] [µM] | IC50 [5, 12] [µM] | IC50 [2, 15] [µM] | IC50 [4, 16] [µM] | IC50 [5, 17] [µM] | Compound | IC50 [1, 8] [µM] | IC50 [3, 10] [µM] | IC50 [6, 13] [µM] | IC50 [7, 14] [µM] | also measured |
| --- | --- | --- | --- | --- | --- | --- | --- | --- | --- | --- | --- |
| > 50 | > 50 | 44.4 | – | – | – | CN1CCN(c2ccc(NC=C3C(=O)NCc4cc(-c5cccs5)ccc43)cc2)CC1 [Example 848, 4-{[4-(4-Methyl-piperazin-1-yl)-phenylamino]-methylene}-7-thiophen-2-yl-1,4-dihydro-2H-isoquinolin-3-one] | 13.8 | 13.3 | 7.1 | 10.9 | – |
| 40.6 | > 50 | > 50 | – | – | – | COc1ccc(NC=C2C(=O)NCc3cc(-c4ccc[nH]4)ccc32)cc1 [Example 849, 4-[(4-Methoxy-phenylamino)-methylene]-7-(1H-pyrrol-2-yl)-1,4-dihydro-2H-isoquinolin-3-one] | 6.8 | 15.9 | 12.8 | 4.3 | – |
| > 50 | 0.31 | > 50 | – | – | – | CCN(CC)CCn1ccc2cc(-c3ccc4c(c3)C(=CNc3ccc(N5CCN(C)CC5)cc3)C(=O)NC4=O)ccc21 [Example 852, 6-[1-(2-Diethylamino-ethyl)-1H-indol-5-yl]-4-{[4-(4-methyl-piperazin-1-yl)-phenylamino]-methylene}-4H-isoquinoline-1,3-dione] | > 50 | > 50 | > 50 | 46.3 | – |
| – | – | – | > 50 | 0.48 | > 50 | CN(C)CCOc1ccc(N/C=C2\C(=O)NC(=O)c3ccc(Br)cc32)cc1 [Example 867, (4Z)-6-Bromo-4-[({4-[2-(dimethylamino)ethoxy]phenyl}amino)methylene]isoquinoline-1,3(2H,4H)-dione] | 8.3 | 5.3 | 3.5 | 6.7 | – |
| – | – | – | 14.7 | 22.6 | > 50 | O=C1NC(=O)c2ccc(Br)cc2/C1=C/Nc1ccc(-n2ccnc2)cc1 [Example 869, (4Z)-6-Bromo-4-({[4-(1H-imidazol-1-yl)phenyl]amino}methylene)isoquinoline-1,3(2H,4H)-dione] | > 50 | > 50 | 5.4 | > 50 | – |
| – | – | – | 23.6 | 34.7 | 1.2 | CC(=O)Oc1cc(CN/C=C2\C(=O)NC(=O)c3ccc(Br)cc32)cc2c1OC(C)(C)O2 [Example 872, 6-({[(Z)-(6-Bromo-1,3-dioxo-2,3-dihydroisoquinolin-4(1H)-ylidene)methyl]amino}methyl)-2,2-dimethyl-1,3-benzodioxol-4-yl acetate] | > 50 | 47.1 | 28.6 | 34.8 | – |
